The source of these data is patent US20130079349A1 (JANSSEN PHARMACEUTICA NV, priority 2010, published 2013).

Some results are limits rather than exact numbers.

One series concerns Abeta total. Briefly: Cellular αLisa assay in SKNBE2 cells, Abeta total. Format: cell-based. To be noted: human neuroblastoma SKNBE2 expressing hAPP695, incubated for 18 hours; for IC50: Homo sapiens, SKNBE2, 18 h, read-out: Cellular αlisa assay in SKNBE2 cells Aβtotal pIC50 (converted). The method, then: (§1) In two αLisa assays the levels of Abeta total and Abeta 1-42 produced and secreted into the medium of human neuroblastoma SKNBE2 cells are quantified. The assay is based on the human neuroblastoma SKNBE2 expressing the wild type Amyloid Precursor Protein (hAPP695). The compounds are diluted and added to these cells, incubated for 18 hours and then measurements of Abeta 1-42 and Abeta total are taken. Abeta total and Abeta 1-42 are measured by sandwich αLisa. αLisa is a sandwich assay using biotinylated antibody AbN/25 attached to streptavidin coated beads and antibody Ab4G8 or cAb42/26 conjugated acceptor beads for the detection of Abeta total and Abeta 1-42 respectively. In the presence of Abeta total or Abeta 1-42, the beads come into close proximity. The excitation of the donor beads provokes the release of singlet oxygen molecules that trigger a cascade of energy transfer in the acceptor beads, resulting in light emission. Light emission is measured after 1 hour incubation (excitation at […] and emission at 615 nm).
(§2) A best-fit curve is fitted by a minimum sum of squares method to the plot of %Controlmin versus compound concentration.

The subject of a further series is Abeta 1-42. Briefly: Cellular αLisa assay in SKNBE2 cells, Abeta 1-42. It counts as cell-based. To be noted: human neuroblastoma SKNBE2 expressing hAPP695, incubated for 18 hours; for IC50: Homo sapiens, SKNBE2, 18 h, read-out: Cellular αlisa assay in SKNBE2 cells Aβ42 pIC50 (converted). The method, then: as §1, §2
The target in a further series is BACE1 (Homo sapiens, UniProt P56817). Briefly: Biochemical FRET based assay. The note with it: recombinant BACE1 1 μg/ml, 120 minutes at room temperature, pH 5.0; read-out: Biochemical FRET based assay pIC50 (converted). From the text:
This assay is a Fluorescence Resonance Energy Transfer Assay (FRET) based assay. The substrate for this assay is an APP derived 13 amino acids peptide that contains the ‘Swedish’ Lys-Met/Asn-Leu mutation of the amyloid precursor protein (APP) beta-secretase cleavage site. This substrate also contains two fluorophores: (7-methoxycoumarin-4-yl) acetic acid (Mca) is a fluorescent donor with excitation wavelength at 320 nm and emission at 405 nm and 2,4-Dinitrophenyl (Dnp) is a proprietary quencher acceptor. […] Upon cleavage by BACE1, the fluorophore Mca is separated from the quenching group Dnp, restoring the full fluorescence yield of the donor. The increase in fluorescence is linearly related to the rate of proteolysis.
Briefly in a 384-well format recombinant BACE1 protein in a final concentration of 1 μg/ml is incubated for 120 minutes at room temperature with 10 μm substrate in incubation buffer (40 mM Citrate buffer pH 5.0, 0.04% PEG, 4% DMSO) in the absence or presence of compound. Next the amount of proteolysis is directly measured by fluorescence measurement at T=0 and T=120 (excitation at 320 nm and emission at 405 nm). Results are expressed in RFU (relative fluorescence units), as difference between T120 and T0.

Chain of BACE1 (P56817 46-501): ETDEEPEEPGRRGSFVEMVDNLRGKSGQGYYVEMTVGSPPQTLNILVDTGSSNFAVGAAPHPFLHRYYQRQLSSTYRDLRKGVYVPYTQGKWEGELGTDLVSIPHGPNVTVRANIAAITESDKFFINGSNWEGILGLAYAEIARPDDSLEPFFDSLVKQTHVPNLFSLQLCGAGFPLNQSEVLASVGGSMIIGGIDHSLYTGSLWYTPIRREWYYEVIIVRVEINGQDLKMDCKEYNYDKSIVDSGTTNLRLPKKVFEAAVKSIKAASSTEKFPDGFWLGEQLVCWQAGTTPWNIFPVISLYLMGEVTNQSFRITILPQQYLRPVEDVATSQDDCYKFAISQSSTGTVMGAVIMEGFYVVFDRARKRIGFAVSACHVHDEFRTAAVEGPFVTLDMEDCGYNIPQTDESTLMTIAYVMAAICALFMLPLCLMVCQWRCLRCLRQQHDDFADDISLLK

The compound `CN1CC(N)=NC(C)(c2cccc(-c3cncnc3)c2)C1=O` (racemic) [Compound 1, rac-5-amino-1,3-dimethyl-3-(3-pyrimidin-5-yl-phenyl)-3,6-dihydro-1H-pyrazin-2-one] displayed a melting point of 223.4 °C. Further, the IC50 in the series with Abeta total was 3.89 µM. Besides, the IC50 with Abeta 1-42 is 4.47 µM. Besides, on BACE1, the IC50 was 20.4 µM.

Turning to `COc1cncc(-c2cccc(C3(C)N=C(N)CN(C)C3=O)c2)c1` (racemic) [Compound 2, rac-5-amino-3-[3-(5-methoxy-pyridin-3-yl)-phenyl]-1,3-dimethyl-3,6-dihydro-1H-pyrazin-2-one], the IC50 in the series on Abeta total was 1.51 µM; with Abeta 1-42, 1.66 µM; on BACE1 it was 10.5 µM.

Regarding `CN1CC(N)=NC(C)(c2cccc(NC(=O)c3ccc(Cl)cn3)c2)C1=O` (racemic) [Compound 3, rac-5-chloro-pyridine-2-carboxylic acid [3-(6-amino-2,4-dimethyl-3-oxo-2,3,4,5-tetrahydro-pyrazin-2-yl)-phenyl]-amide], the IC50 in the series with Abeta total was 0.0275 µM; with Abeta 1-42, 0.0646 µM.

As to `Cc1cnc(C(=O)Nc2cccc(C3(C)N=C(N)CN(C)C3=O)c2)cn1` (racemic) [Compound 6, rac-5-methyl-pyrazine-2-carboxylic acid [3-(6-amino-2,4-dimethyl-3-oxo-2,3,4,5-tetrahydro-pyrazin-2-yl)-phenyl]-amide], the IC50 in the series with Abeta total was 1.15 µM; with Abeta 1-42, 1.26 µM; at BACE1 it was 7.08 µM.

With `CCN1CC(N)=NC(C)(c2cc(-c3cncc(OC)c3)c(F)cc2F)C1=O` (racemic) [Compound 9, rac-5-amino-3-[2,4-difluoro-5-(5-methoxy-pyridin-3-yl)-phenyl]-1-ethyl-3-methyl-3,6-dihydro-1H-pyrazin-2-one], the melting point stood at 81.8 °C. Further, in the series on Abeta total, the IC50 was 9.12 µM. Besides, the IC50 in the series with Abeta 1-42 was more than 10 µM. In addition, the IC50 at BACE1 was more than 30.2 µM.

As to `CN1CC(N)=NC(C)(c2cccc(NC(=O)c3ccc(Cl)cn3)c2)C1=O` (single isomer, unassigned) [Compound 4, (S*)-5-chloro-pyridine-2-carboxylic acid [3-(6-amino-2,4-dimethyl-3-oxo-2,3,4,5-tetrahydro-pyrazin-2-yl)-phenyl]-amide], the “Cellular αlisa assay in SKNBE2 cells Aβtotal pIC50” value with Abeta total is listed as less than 5. The “Cellular αlisa assay in SKNBE2 cells Aβ42 pIC50” value with Abeta 1-42 is given as less than 5.

Consider `CN1CC(N)=NC(C)(c2cccc(NC(=O)c3ccc(Cl)cn3)c2)C1=O` (single isomer, unassigned) [Compound 5, (R*)-5-chloro-pyridine-2-carboxylic acid [3-(6-amino-2,4-dimethyl-3-oxo-2,3,4,5-tetrahydro-pyrazin-2-yl)-phenyl]-amide], for which, in the series with Abeta total, the “Cellular αlisa assay in SKNBE2 cells Aβtotal pIC50” value is 7.43. Further, the “Cellular αlisa assay in SKNBE2 cells Aβ42 pIC50” value with Abeta 1-42 stood at 7.44.
